Test results: US9969694B2, “N-(arylalkyl)-N′-pyrazolyl-urea, thiourea, guanidine and cyanoguanidine compounds as TrkA kinase inhibitors” (Array BioPharma Inc., priority 2012, dated 2018)

How the values were obtained:
Assay in all cases: Off-Target Kinase Profiling
Format in all cases: biochemical
Conditions in all cases: 10 μM; ATP near Km
[1] = target: T1, AMPK(A1/B1/G1) (Homo sapiens, UniProt Q13131)
T1 construct: purchased Millipore (KinaseProfiler service)
Method: (§1) Representative compounds of the invention (Examples 33 and 10) were tested for off-target kinase activity at a concentration of 10 μM by Millipore, Inc. in their KinaseProfiler™ service against all the kinases available in their full kinase panel. Compounds were run in duplicate at a concentration of ATP near the Km for each individual kinase according to Millipore's specifications. The results are shown in Table B. Data are reported as percent of control (POC) and are the average of the two replicates.

[2] = target: T2, Abl-P (Homo sapiens, UniProt P00519)
T2 construct: purchased Millipore (KinaseProfiler service)
Method: as §1

[3] = target: T3, BLK_m (Mus musculus, UniProt P16277)
T3 construct: purchased Millipore (KinaseProfiler service)
Method: as §1

[4] = target: T4, CAMK2b (Homo sapiens, UniProt Q13554)
T4 construct: purchased Millipore (KinaseProfiler service)
Method: as §1

[5] = target: T5, CDK1/cyclinB (Homo sapiens, UniProt P06493)
T5 construct: purchased Millipore (KinaseProfiler service)
Method: as §1

[6] = tested on: CK1_y
Method: as §1

[7] = target: T6, CK1delta (Homo sapiens, UniProt P48730)
T6 construct: purchased Millipore, Inc. (KinaseProfiler service)
T6 sequence (P48730 whole entry): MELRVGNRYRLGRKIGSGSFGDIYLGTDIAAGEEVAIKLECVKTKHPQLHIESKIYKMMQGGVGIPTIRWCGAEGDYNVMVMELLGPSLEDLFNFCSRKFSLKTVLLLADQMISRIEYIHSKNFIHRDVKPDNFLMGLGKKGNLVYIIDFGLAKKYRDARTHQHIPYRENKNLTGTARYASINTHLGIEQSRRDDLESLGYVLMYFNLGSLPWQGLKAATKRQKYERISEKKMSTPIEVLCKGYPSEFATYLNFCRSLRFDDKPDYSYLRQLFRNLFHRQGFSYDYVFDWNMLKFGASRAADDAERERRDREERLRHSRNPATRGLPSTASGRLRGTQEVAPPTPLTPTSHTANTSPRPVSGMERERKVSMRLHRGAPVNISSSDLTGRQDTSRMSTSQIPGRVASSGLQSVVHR
Method: as §1

[8] = target: T7, CK2 (Homo sapiens, UniProt P68400)
T7 construct: purchased Millipore, Inc. (KinaseProfiler service)
Method: as §1

[9] = target: T8, DDR2 (Homo sapiens, UniProt Q16832)
T8 construct: purchased Millipore, Inc. (KinaseProfiler service)
Method: as §1

[10] = target: T9, EphA4 (Homo sapiens, UniProt P54764)
T9 construct: purchased Millipore, Inc. (KinaseProfiler service)
Method: as §1

[11] = target: T10, EphB3 (Homo sapiens, UniProt P54753)
T10 construct: purchased Millipore, Inc. (KinaseProfiler service)
Method: as §1

[12] = target: T11, FGFR2 (Homo sapiens, UniProt P21802)
T11 construct: purchased Millipore, Inc. (KinaseProfiler service)
Method: as §1

[13] = target: T12, Fgr (Homo sapiens, UniProt P09769)
T12 construct: purchased Millipore, Inc. (KinaseProfiler service)
T12 sequence (P09769 whole entry): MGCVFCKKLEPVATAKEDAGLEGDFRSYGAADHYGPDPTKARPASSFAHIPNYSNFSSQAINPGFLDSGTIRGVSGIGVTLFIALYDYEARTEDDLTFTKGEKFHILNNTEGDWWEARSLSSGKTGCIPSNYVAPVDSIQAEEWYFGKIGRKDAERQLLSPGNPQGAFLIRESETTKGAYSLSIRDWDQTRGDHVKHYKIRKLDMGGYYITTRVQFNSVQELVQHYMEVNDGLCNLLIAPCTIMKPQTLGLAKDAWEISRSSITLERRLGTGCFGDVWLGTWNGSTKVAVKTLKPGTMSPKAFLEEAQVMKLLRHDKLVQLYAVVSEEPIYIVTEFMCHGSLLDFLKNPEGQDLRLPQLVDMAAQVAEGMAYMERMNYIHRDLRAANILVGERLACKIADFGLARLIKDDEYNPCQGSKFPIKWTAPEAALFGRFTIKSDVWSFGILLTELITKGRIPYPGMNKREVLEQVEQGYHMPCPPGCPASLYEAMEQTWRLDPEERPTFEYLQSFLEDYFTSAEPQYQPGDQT
Method: as §1

[14] = target: T13, Flt4 (Homo sapiens, UniProt P35916)
T13 construct: purchased Millipore, Inc. (KinaseProfiler service)
Method: as §1

[15] = target: T14, IGF-1R (Homo sapiens, UniProt P08069)
T14 construct: purchased Millipore, Inc. (KinaseProfiler service)
Method: as §1

[16] = target: T15, JAK2 (Homo sapiens, UniProt O60674)
T15 construct: purchased Millipore, Inc. (KinaseProfiler service)
Method: as §1

[17] = target: T16, JNK3 (Homo sapiens, UniProt P53779)
T16 construct: purchased Millipore, Inc. (KinaseProfiler service)
Method: as §1

[18] = target: T17, Lyn (Homo sapiens, UniProt P07948)
T17 construct: purchased Millipore, Inc. (KinaseProfiler service)
Method: as §1

[19] = target: T18, MAPKAP-K2 (Homo sapiens, UniProt P49137)
T18 construct: purchased Millipore, Inc. (KinaseProfiler service)
Method: as §1

[20] = target: T19, MAPKAP-K3 (Homo sapiens, UniProt Q16644)
T19 construct: purchased Millipore, Inc. (KinaseProfiler service)
Method: as §1

[21] = target: T20, MEK1 (Homo sapiens, UniProt Q02750)
T20 construct: purchased Millipore, Inc. (KinaseProfiler service)
Method: as §1

[22] = target: T21, MKK4_m (Mus musculus, UniProt P47809)
T21 construct: purchased Millipore, Inc. (KinaseProfiler service)
Method: as §1

[23] = target: T22, MSK2 (Homo sapiens, UniProt O75676)
T22 construct: purchased Millipore, Inc. (KinaseProfiler service)
Method: as §1

[24] = target: T23, MST1 (Homo sapiens, UniProt Q13043)
T23 construct: purchased Millipore, Inc. (KinaseProfiler service)
Method: as §1

[25] = target: T24, MuSK (Homo sapiens, UniProt O15146)
T24 construct: purchased Millipore, Inc. (KinaseProfiler service)
Method: as §1

[26] = target: T25, PDGFRbeta (Homo sapiens, UniProt P09619)
T25 construct: purchased Millipore, Inc. (KinaseProfiler service)
T25 sequence (P09619 33-1106): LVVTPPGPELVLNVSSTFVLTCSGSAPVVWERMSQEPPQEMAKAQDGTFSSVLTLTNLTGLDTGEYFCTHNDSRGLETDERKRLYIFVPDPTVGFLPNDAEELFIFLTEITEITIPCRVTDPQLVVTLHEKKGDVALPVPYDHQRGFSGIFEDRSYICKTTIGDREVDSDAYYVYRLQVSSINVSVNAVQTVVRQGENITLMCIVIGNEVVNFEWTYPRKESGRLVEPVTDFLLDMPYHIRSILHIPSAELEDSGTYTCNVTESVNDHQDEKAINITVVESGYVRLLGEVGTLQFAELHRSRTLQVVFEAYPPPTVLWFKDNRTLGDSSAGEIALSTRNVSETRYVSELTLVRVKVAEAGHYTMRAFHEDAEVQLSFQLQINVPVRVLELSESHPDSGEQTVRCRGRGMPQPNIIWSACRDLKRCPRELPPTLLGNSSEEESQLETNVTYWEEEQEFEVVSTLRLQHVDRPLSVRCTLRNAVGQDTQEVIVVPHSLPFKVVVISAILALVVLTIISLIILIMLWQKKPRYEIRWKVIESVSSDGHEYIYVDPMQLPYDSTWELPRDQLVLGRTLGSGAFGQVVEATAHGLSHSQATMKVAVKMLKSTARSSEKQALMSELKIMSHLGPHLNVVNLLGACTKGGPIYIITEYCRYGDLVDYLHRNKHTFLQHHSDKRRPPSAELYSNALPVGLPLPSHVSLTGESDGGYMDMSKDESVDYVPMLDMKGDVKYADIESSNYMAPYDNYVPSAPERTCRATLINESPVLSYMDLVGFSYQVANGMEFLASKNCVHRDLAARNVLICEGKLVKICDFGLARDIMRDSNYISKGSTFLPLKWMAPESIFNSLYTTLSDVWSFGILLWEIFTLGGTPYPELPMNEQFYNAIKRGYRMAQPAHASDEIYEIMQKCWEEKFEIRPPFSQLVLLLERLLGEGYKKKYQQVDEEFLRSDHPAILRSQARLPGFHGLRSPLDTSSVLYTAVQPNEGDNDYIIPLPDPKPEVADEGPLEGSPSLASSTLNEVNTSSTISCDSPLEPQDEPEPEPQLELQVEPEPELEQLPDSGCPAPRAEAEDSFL
Method: as §1

[27] = target: T26, PRKG1beta (Homo sapiens, UniProt Q13976)
T26 construct: purchased Millipore, Inc. (KinaseProfiler service)
Method: as §1

[28] = target: T27, PTK5 (Homo sapiens, UniProt P42685)
T27 construct: purchased Millipore, Inc. (KinaseProfiler service)
Method: as §1

[29] = target: T28, Pim-2 (Homo sapiens, UniProt Q9P1W9)
T28 construct: purchased Millipore, Inc. (KinaseProfiler service)
Method: as §1

[30] = target: T29, Plk2 (Homo sapiens, UniProt Q9NYY3)
T29 construct: purchased Millipore, Inc. (KinaseProfiler service)
T29 sequence (Q9NYY3 whole entry): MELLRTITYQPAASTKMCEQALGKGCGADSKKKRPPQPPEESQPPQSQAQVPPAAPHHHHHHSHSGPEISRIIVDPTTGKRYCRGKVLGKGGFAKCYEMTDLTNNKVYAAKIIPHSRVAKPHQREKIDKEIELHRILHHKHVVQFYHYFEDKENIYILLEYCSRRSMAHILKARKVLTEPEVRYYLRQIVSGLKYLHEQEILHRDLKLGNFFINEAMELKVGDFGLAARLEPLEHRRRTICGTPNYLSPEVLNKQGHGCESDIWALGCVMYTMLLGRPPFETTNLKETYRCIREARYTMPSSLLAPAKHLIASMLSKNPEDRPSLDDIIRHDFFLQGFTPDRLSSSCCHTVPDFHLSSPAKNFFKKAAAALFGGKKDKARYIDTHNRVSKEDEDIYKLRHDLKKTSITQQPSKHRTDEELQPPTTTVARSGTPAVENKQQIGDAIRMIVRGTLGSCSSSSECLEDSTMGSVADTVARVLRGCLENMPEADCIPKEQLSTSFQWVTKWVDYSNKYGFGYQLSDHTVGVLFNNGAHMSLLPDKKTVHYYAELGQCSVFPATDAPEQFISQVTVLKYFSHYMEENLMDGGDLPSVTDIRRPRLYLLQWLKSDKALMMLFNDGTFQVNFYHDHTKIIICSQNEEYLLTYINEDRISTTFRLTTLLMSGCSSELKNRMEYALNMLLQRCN
Method: as §1

[31] = target: T30, Rse (Homo sapiens, UniProt Q06418)
T30 construct: purchased Millipore, Inc. (KinaseProfiler service)
Method: as §1

[32] = target: T31, Rsk3 (Homo sapiens, UniProt Q15349)
T31 construct: purchased Millipore, Inc. (KinaseProfiler service)
Method: as §1

[33] = target: T32, SRC (Homo sapiens, UniProt P12931)
T32 construct: purchased Millipore, Inc. (KinaseProfiler service)
Method: as §1

[34] = target: T33, SRPK2 (Homo sapiens, UniProt P78362)
T33 construct: purchased Millipore, Inc. (KinaseProfiler service)
T33 sequence (P78362 whole entry): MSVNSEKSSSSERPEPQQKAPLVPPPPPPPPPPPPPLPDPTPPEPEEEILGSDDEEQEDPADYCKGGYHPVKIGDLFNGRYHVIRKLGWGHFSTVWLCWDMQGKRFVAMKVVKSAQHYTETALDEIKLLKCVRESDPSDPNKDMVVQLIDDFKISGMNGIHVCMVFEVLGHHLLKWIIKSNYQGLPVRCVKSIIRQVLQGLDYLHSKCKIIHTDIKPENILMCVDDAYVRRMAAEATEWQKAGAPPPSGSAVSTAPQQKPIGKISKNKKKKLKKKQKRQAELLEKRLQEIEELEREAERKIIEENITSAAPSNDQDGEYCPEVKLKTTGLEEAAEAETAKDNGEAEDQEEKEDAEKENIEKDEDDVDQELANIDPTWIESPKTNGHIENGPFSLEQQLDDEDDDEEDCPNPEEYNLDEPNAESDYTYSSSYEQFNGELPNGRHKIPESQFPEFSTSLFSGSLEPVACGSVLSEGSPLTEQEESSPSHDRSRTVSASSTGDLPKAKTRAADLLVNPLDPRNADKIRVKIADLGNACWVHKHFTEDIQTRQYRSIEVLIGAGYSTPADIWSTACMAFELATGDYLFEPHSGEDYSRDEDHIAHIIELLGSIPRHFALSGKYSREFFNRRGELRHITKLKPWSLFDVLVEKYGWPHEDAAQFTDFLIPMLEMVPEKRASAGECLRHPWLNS
Method: as §1

[35] = target: T34, STK33 (Homo sapiens, UniProt Q9BYT3)
T34 construct: purchased Millipore, Inc. (KinaseProfiler service)
Method: as §1

[36] = target: T35, TEC Activated (Homo sapiens, UniProt P42680)
T35 construct: purchased Millipore, Inc. (KinaseProfiler service)
T35 sequence (P42680 whole entry): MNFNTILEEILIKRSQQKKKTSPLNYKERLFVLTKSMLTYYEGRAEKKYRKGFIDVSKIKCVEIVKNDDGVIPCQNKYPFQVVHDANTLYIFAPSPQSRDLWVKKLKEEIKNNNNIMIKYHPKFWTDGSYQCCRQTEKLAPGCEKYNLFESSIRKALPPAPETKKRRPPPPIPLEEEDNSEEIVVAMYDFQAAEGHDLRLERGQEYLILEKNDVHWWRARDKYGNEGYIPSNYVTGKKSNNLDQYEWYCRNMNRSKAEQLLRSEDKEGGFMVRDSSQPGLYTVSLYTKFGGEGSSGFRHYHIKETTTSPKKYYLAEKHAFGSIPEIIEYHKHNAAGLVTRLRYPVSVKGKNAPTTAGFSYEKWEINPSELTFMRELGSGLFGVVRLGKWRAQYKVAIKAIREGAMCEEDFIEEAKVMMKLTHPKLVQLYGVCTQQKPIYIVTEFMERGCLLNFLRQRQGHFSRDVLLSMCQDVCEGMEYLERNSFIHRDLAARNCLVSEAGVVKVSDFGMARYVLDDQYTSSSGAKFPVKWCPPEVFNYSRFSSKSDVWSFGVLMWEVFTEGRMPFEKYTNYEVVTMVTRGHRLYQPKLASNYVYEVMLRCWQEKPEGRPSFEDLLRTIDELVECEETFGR
Method: as §1

[37] = target: T36, TNK2 (Homo sapiens, UniProt Q07912)
T36 construct: purchased Millipore, Inc. (KinaseProfiler service)
Method: as §1

[38] = target: T37, TSSK2 (Homo sapiens, UniProt Q96PF2)
T37 construct: purchased Millipore, Inc. (KinaseProfiler service)
T37 sequence (Q96PF2 whole entry): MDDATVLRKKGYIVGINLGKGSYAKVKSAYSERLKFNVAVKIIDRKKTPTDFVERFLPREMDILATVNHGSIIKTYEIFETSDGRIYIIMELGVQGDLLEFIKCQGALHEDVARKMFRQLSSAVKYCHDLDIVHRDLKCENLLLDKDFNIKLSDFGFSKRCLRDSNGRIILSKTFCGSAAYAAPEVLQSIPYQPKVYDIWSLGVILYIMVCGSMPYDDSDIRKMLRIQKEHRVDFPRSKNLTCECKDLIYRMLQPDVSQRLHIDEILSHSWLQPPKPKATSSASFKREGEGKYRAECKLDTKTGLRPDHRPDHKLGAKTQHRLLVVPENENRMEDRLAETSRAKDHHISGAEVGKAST
Method: as §1

[39] = target: T38, ULK2 (Homo sapiens, UniProt Q8IYT8)
T38 construct: purchased Millipore, Inc. (KinaseProfiler service)
Method: as §1

[40] = target: T39, Yes (Homo sapiens, UniProt P07947)
T39 construct: purchased Millipore, Inc. (KinaseProfiler service)
T39 sequence (P07947 whole entry): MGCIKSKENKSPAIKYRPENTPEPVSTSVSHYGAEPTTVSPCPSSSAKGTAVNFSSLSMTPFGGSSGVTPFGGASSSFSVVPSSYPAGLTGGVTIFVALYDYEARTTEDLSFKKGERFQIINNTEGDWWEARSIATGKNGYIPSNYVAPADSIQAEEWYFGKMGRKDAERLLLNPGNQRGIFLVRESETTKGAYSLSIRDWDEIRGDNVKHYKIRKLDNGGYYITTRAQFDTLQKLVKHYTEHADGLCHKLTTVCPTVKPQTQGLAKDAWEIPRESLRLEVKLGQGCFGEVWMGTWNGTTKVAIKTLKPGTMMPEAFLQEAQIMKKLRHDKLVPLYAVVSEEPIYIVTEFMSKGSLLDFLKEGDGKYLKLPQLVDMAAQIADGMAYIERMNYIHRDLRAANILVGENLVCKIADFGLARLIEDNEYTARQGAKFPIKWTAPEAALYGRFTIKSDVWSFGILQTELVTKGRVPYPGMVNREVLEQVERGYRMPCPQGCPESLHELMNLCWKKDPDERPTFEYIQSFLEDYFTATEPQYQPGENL
Method: as §1

[41] = tested on: c-RAF
Method: as §1

SMILES: COCc1ccc(C(F)(F)F)c(CNC(=O)Nc2c(C)c(-c3cnn(C)c3)nn2-c2ccccc2)c1 [Example 33, 1-(1′,4-dimethyl-1-phenyl-1H,1′H-[3,4′-bipyrazol]-5-yl)-3-(5-(methoxymethyl)-2-(trifluoromethyl)benzyl)urea]
- Avg POC AMPK(A1/B1/G1) [1]: 147.5 POC
- Avg POC Abl-P [2]: 170.5 POC
- Avg POC BLK_m [3]: 119 POC
- Avg POC CAMK2b [4]: 96 POC
- Avg POC CDK1/cyclinB [5]: 99 POC
- Avg POC CK1_y [6]: 97.5 POC
- Avg POC CK1delta [7]: 127.5 POC
- Avg POC CK2 [8]: 94.5 POC
- Avg POC DDR2 [9]: 111 POC
- Avg POC EphA4 [10]: 120 POC
- Avg POC EphB3 [11]: 69 POC
- Avg POC FGFR2 [12]: 109.5 POC
- Avg POC Fgr [13]: 121 POC
- Avg POC Flt4 [14]: 94 POC
- Avg POC IGF-1R [15]: 44 POC
- Avg POC JAK2 [16]: 130 POC
- Avg POC JNK3 [17]: 135 POC
- Avg POC Lyn [18]: 104.5 POC
- Avg POC MAPKAP-K2 [19]: 146 POC
- Avg POC MAPKAP-K3 [20]: 119.5 POC
- Avg POC MEK1 [21]: 117 POC
- Avg POC MKK4_m [22]: 137 POC
- Avg POC MSK2 [23]: 207.5 POC
- Avg POC MST1 [24]: 87.5 POC
- Avg POC MuSK [25]: 94.5 POC
- Avg POC PDGFRbeta [26]: 166.5 POC
- Avg POC PRKG1beta [27]: 121 POC
- Avg POC PTK5 [28]: 92.5 POC
- Avg POC Pim-2 [29]: 146 POC
- Avg POC Plk2 [30]: 102 POC
- Avg POC Rse [31]: 110 POC
- Avg POC Rsk3 [32]: 103 POC
- Avg POC SRC [33]: 101 POC
- Avg POC SRPK2 [34]: 112 POC
- Avg POC STK33 [35]: 104.5 POC
- Avg POC TEC Activated [36]: 138.5 POC
- Avg POC TNK2 [37]: 119.5 POC
- Avg POC TSSK2 [38]: 131 POC
- Avg POC ULK2 [39]: 98.5 POC
- Avg POC Yes [40]: 113 POC
- Avg POC c-RAF [41]: 94.5 POC

SMILES: COCc1ccc(C2CCC2)c(CNC(=O)Nc2c(C)c(-c3cnc(C)nc3)nn2-c2ccccc2)c1 [Example 10, 1-(2-cyclobutyl-5-(methoxymethyl)benzyl)-3-(4-methyl-3-(2-methylpyrimidin-5-yl)-1-phenyl-1H-pyrazol-5-yl)urea]
- Avg POC AMPK(A1/B1/G1) [1]: 111.5 POC
- Avg POC Abl-P [2]: 97 POC
- Avg POC BLK_m [3]: 97.5 POC
- Avg POC CAMK2b [4]: 94 POC
- Avg POC CDK1/cyclinB [5]: 92 POC
- Avg POC CK1_y [6]: 97 POC
- Avg POC CK1delta [7]: 85.5 POC
- Avg POC CK2 [8]: 94.5 POC
- Avg POC DDR2 [9]: 105.5 POC
- Avg POC EphA4 [10]: 105.5 POC
- Avg POC EphB3 [11]: 100 POC
- Avg POC FGFR2 [12]: 103.5 POC
- Avg POC Fgr [13]: 97 POC
- Avg POC Flt4 [14]: 88 POC
- Avg POC IGF-1R [15]: 82 POC
- Avg POC JAK2 [16]: 106.5 POC
- Avg POC JNK3 [17]: 74 POC
- Avg POC Lyn [18]: 86 POC
- Avg POC MAPKAP-K2 [19]: 106 POC
- Avg POC MAPKAP-K3 [20]: 98.5 POC
- Avg POC MEK1 [21]: 121 POC
- Avg POC MKK4_m [22]: 125.5 POC
- Avg POC MSK2 [23]: 110.5 POC
- Avg POC MST1 [24]: 87.5 POC
- Avg POC MuSK [25]: 95 POC
- Avg POC PDGFRbeta [26]: 106 POC
- Avg POC PRKG1beta [27]: 107.5 POC
- Avg POC PTK5 [28]: 87.5 POC
- Avg POC Pim-2 [29]: 118 POC
- Avg POC Plk2 [30]: 101 POC
- Avg POC Rse [31]: 103 POC
- Avg POC Rsk3 [32]: 101 POC
- Avg POC SRC [33]: 96 POC
- Avg POC SRPK2 [34]: 114 POC
- Avg POC STK33 [35]: 98 POC
- Avg POC TEC Activated [36]: 88.5 POC
- Avg POC TNK2 [37]: 114.5 POC
- Avg POC TSSK2 [38]: 90 POC
- Avg POC ULK2 [39]: 89 POC
- Avg POC Yes [40]: 88.5 POC
- Avg POC c-RAF [41]: 90 POC
